Data as given in publication PMC5615911 (Toxicology Reports, 2016).
Where “and” joins values, the source holds several entries; their conditions need not be identical. Equal entries are not always repeated.

Test: Pharmacokinetics of S3643, single iv or oral dose
Format: in vivo, Sprague-Dawley rats
Settings: for AUC(0-t): AUClast
[1] = female, Sprague-Dawley, rat, plasma, iv, 1 mg/kg
[2] = female, Sprague-Dawley, rat, plasma, po
[3] = female, Sprague-Dawley, rat, plasma, po, 10 mg/kg
[4] = female, Sprague-Dawley, rat, plasma, po, 30 mg/kg
[5] = female, Sprague-Dawley, rat, plasma, po, 100 mg/kg
[6] = female, iv 1.0 mg/kg bw, 1 mg/kg
[7] = male, Sprague-Dawley, rat, plasma, iv, 1 mg/kg
[8] = male, Sprague-Dawley, rat, plasma, po
[9] = male, Sprague-Dawley, rat, plasma, po, 10 mg/kg
[10] = male, Sprague-Dawley, rat, plasma, po, 30 mg/kg
[11] = male, Sprague-Dawley, rat, plasma, po, 100 mg/kg

COc1cccc(-c2n[nH]c(SCc3ccccn3)n2)c1OC [S3643, 2-(((3-(2,3-dimethoxyphenyl)-1H-1,2,4-triazol-5-yl)thio)methyl)pyridine]
Fold increase in AUClast for 10-fold increase in oral dose (female): 16.8 fold | Tmax [1]: 1.8 min | Vd [1]: 0.325 L/kg | clearance [1]: 8.03 mL/min/kg | half-life [1]: 9.6 min | bioavailability [2]: 67.4 to 116% | half-life [2]: 53.4 to 99.6 min | Tmax [3]: 15 min | bioavailability [3]: 67.4% | half-life [3]: 53.4 min | AUC(0-t) (female, Sprague-Dawley, rat, plasma, po, 10 mg/kg, oral 10 mg/kg bw): 14200 ng·h/mL | Cmax (female, Sprague-Dawley, rat, plasma, po, 10 mg/kg, Cmax, oral 10 mg/kg bw): 14900 ng/mL | Tmax [4]: 15 min | bioavailability [4]: 116% | half-life [4]: 68.4 min | AUC(0-t) (female, Sprague-Dawley, rat, plasma, po, 30 mg/kg, oral 30 mg/kg bw): 73500 ng·h/mL | Cmax (female, Sprague-Dawley, rat, plasma, po, 30 mg/kg, Cmax, oral 30 mg/kg bw): 45400 ng/mL | Tmax [5]: 22.8 min | bioavailability [5]: 113% | half-life [5]: 99.6 min | AUC(0-t) (female, Sprague-Dawley, rat, plasma, po, 100 mg/kg, oral 100 mg/kg bw): 239000 ng·h/mL | Cmax (female, Sprague-Dawley, rat, plasma, po, 100 mg/kg, Cmax, oral 100 mg/kg bw): 98900 ng/mL and 310 µM | CL as % of hepatic blood flow (female, iv): 14.5% | Vss as % of total body water volume (female, iv): 48.6% | AUC0-last/dose (female, iv 1.0 mg/kg bw): 2110 ng·h/mL/mg/kg | AUC0-last [6]: 2110 ± 353 ng·h/mL | Cmax [6]: 9840 ± 1880 ng/mL | AUC0-last/dose (female, oral gavage 10 mg/kg bw): 1423 ng·h/mL/mg/kg | AUC0-last/dose (female, oral gavage 30 mg/kg bw): 2450 ng·h/mL/mg/kg | AUC0-last/dose (female, oral gavage 100 mg/kg bw): 2393 ng·h/mL/mg/kg | Female/male ratio of mean AUClast (iv 1 mg/kg): 0.76 | Female/male ratio of mean Cmax (iv 1 mg/kg): 0.91 | Fold increase in AUClast for 10-fold increase in oral dose (male): 6.88 fold | Tmax [7]: 1.8 min | Vd [7]: 0.337 L/kg | clearance [7]: 5.97 mL/min/kg | half-life [7]: 11.4 min | bioavailability [8]: 65.7 to 96% | half-life [8]: 48 to 99.6 min | Tmax [9]: 15 min | bioavailability [9]: 95.5% | half-life [9]: 48 min | AUC(0-t) (male, Sprague-Dawley, rat, plasma, po, 10 mg/kg, oral 10 mg/kg bw): 26600 ng·h/mL | Cmax (male, Sprague-Dawley, rat, plasma, po, 10 mg/kg, Cmax, oral 10 mg/kg bw): 32500 ng/mL | Tmax [10]: 26.4 min | bioavailability [10]: 96% | half-life [10]: 58.2 min | AUC(0-t) (male, Sprague-Dawley, rat, plasma, po, 30 mg/kg, oral 30 mg/kg bw): 80300 ng·h/mL | Cmax (male, Sprague-Dawley, rat, plasma, po, 30 mg/kg, Cmax, oral 30 mg/kg bw): 50900 ng/mL | Tmax [11]: 18.6 min | bioavailability [11]: 65.7% | half-life [11]: 99.6 min | AUC(0-t) (male, Sprague-Dawley, rat, plasma, po, 100 mg/kg, oral 100 mg/kg bw): 183000 ng·h/mL | Cmax (male, Sprague-Dawley, rat, plasma, po, 100 mg/kg, Cmax, oral 100 mg/kg bw): 78300 ng/mL and 238 µM | CL as % of hepatic blood flow (male, iv): 10.8% | Vss as % of total body water volume (male, iv): 50.4%
